Source: patent US8669282B2, “Companion animal compositions including lipoic acid and methods of use thereof” (Hill's Pet Nutrition, Inc., priority 2000, dated 2014)

How the values were obtained:
canine bone cells = experiment: Genes related to cartilage metabolism altered in canine bone cells; format: in vivo, dogs; details: 90 days
From the text: Table 8 illustrates the directional change (up regulation or down regulation) in genes related to cartilage metabolism in dogs after being fed a control diet compared with dogs fed a control plus fish oil and a control plus lipoic acid for 90 days in canine bone cells.

plasma metabolites = experiment: Plasma metabolomics, fold change at day 30; format: in vivo, dogs
Method: Plasma metabolites were analyzed and were compared as fold change relative to the control fed dogs.
Table 5 illustrates the change in pyruvate blood levels in of dogs fed a control diet compared with dogs fed a control plus fish oil and a control plus lipoic acid.
Table 22 illustrates change in metabolite measured in blood samples for dogs after being fed a control diet compared with dogs fed a pet food including lipoic acid for 30 days.

[1] = tested on: genes related to cartilage and energy metabolism; experiment: Differential gene expression profile, whole blood RNA, canine 2 Affymetrix genechips; format: in vivo, dogs
From the text: Thirty (30) dogs were used to determine the effect of lipoic acid when compared to an AAFCO control food or a test food containing fish oil.
A differential gene expression profile was studied between an AAFCO control food, a food containing fish oil, and a food containing lipoic acid. At a minimum of 1.3 fold change, a list of 1212 genes was generated compared to the AAFCO control and 1896 genes compared to the food containing fish oil at d 30.
Total RNAs were isolated from whole blood samples using the PAXgene RNA isolation kit. All measurements were done with the canine 2 Affymetrix genechips. For statistical analysis, all measurements were normalized with RMA. All analysis was preformed using Partek. An ANOVA t-test was performed for genes that are differentially expressed between the control and test foods were selected based on p-value cutoff 0.1, fold change>+/−1.3.
Table 9 illustrates the change in genes related to cartilage metabolism and energy metabolism in dogs after being fed a control diet compared with dogs fed a control plus fish oil and a control plus lipoic acid for 90 days.

[2] = tested on: cartilage markers (CPII, CTXII, COMP); experiment: Serum cartilage (arthritic) markers by ELISA; format: in vivo, dogs; details: for Change CPII / Change CTXII / CPII: blood
Method: Serum cartilage markers were measured using ELISA based kits to determine concentrations of cartilage markers. Day 0 was used as a covariate in the analysis to adjust for baseline values.
Table 7 illustrates the change in blood level of arthritic markers in dogs after being fed a control diet compared with dogs fed a control plus fish oil and a control plus lipoic acid for 30 days and measured again at day 90.
Table 12 illustrates arthritic makers measured in blood samples for dogs after being fed a control diet compared with dogs fed a pet food including lipoic acid for 90 days.

GSH:GSSG = GSH:GSSG ratio in blood lymphocytes of dogs fed dl-alpha-lipoic acid in extruded food; format: in vivo; details: chronic feeding in diet
From the text: Thirty (30) adult, random source, dogs were utilized for this study. Dogs were at least 10 months of age, not pregnant, not lactating and of reasonable body weight prior to start of test. Animals were randomized into 5 groups for dietary treatment with 3 males and 3 females per each group.
All dogs were fed a control food (0 ppm dl-alpha-lipoic acid added) that met or exceeded all recommendations for nutrients as proposed by the American Association of Feed Control Officials (AAFCO 2000) during a 2 week prefeeding period (Table 2). Following the prefeeding period dogs were randomized into 5 treatment groups with one of the following dl-alpha lipoic acid target-inclusions (dry matter basis): 0 ppm, 150 ppm, 1500 ppm, 3000 ppm, 4500 ppm. […]
Solvents and separation conditions were as described (Fariss, Jones). Levels of GSH and GSSG were quantified relative to authentic standards. […]
Comparison of values for clinical chemistry, hematology and body weights vs baseline were analyzed by way of paired t-test on SAS for windows with significance set at P<0.05. Means of values at each measured time point were separated by a one-way ANOVA with significance set at P<0.05. The difference in GSH:GSSG between day 84 and baseline were analyzed between groups by way of SAS for windows in a one-way ANOVA with significance set at P<0.05.

[3] = blood, day 30, day 0 as covariate
[4] = test food containing 150 ppm lipoic acid, fold change >+/-1.3, p cutoff 0.1

Structure (SMILES): O=C(O)CCCCC1CCSS1 (racemic) [Lipoic acid, dl-alpha-lipoic acid]
- MMP3 gene, directional change (canine bone cells; probe 1582602_at): Down
- TIMP2 gene, directional change (canine bone cells; probe 1582708_at): up
- Prolyl 4-hydroxylase gene, directional change (canine bone cells; probe 1600479_at): up
- Fold change in pyruvate, Lipoic acid vs Control (plasma metabolites; [3]): 0.5379
- Fold change in pyruvate, Lipoic acid vs Fish oil (plasma metabolites; [3]): 0.6274
- metabolite hydroxyproline in plasma, in words (plasma metabolites; dogs fed a food containing lipoic acid): reduced
- Fold change Facilitated glucose transporter 6 ([1]; lipoic acid vs. control): 1.3
- Fold change chondroitan sulfate protcoglycan 2 (veriscan) ([1]; lipoic acid vs. control): 1.5
- Fold change N-acetylgalactosaminyl-transferase 1 ([1]; lipoic acid vs. fish oil): 1.3
- number of genes with altered expression vs AAFCO control food [1, 4]: 1212 genes
- number of genes with altered expression vs test food containing fish oil [1, 4]: 1896 genes
- Change CPII ([2]; Day 30): −95.10
- Change CTXII ([2]; Day 30): −5.60
- CPII ([2]; Day 30, d 0 as covariate): 986.28 ng/mL
- Change CPII ([2]; Day 90): −232.70
- Change CTXII ([2]; Day 90): −0.59
- CPII ([2]; Day 90, d 0 as covariate): 848.0 ng/mL
- type II collagen C-propeptide and carboxy-terminal crosslinked telopeptide fragment of type II collagen, in words ([2]; compared with a similar food without lipoic acid): greater decrease
- reduced glutathione (GSH) to oxidized glutathione (GSSG) ratio, in words (GSH:GSSG): improves
